Experimental data published in ChEMBL document CHEMBL3045351, “A 4-(o-methoxyphenyl)-2-aminothiazole: an anti-quorum sensing compound” (2013).
Converted amounts (≈) assume the structure as drawn. The source made the active and inactive calls. The rule behind the calls is not given here.

Key:
Pseudomonas aeruginosa [1] = assay: Bactericidal activity against Pseudomonas aeruginosa PAO1 after 18 hr by crystal violet staining method; assay type: functional, organism-based
Pseudomonas aeruginosa [2] = assay: Antiquorum-sensing activity against Pseudomonas aeruginosa PAO1 cells assessed as decrease in biofilm formation at 25 to 100 ug/ml after 18 hr by crystal violet staining method; assay type: functional, organism-based
Pseudomonas aeruginosa [3] = assay: Antiquorum-sensing activity against Pseudomonas aeruginosa PAO1 cells assessed as scattered cells at 25 ug/ml after 18 hr by scanning electron microscopic analysis; assay type: functional, organism-based
Bacillus subtilis [4] = assay: Induction of ROS production in Bacillus subtilis NCIM 2063 assessed as morphological changes at MIC50 concentration after 3 hr by scanning electron microscopic analysis; assay type: functional, organism-based
Bacillus subtilis [5] = assay: Induction of ROS production in Bacillus subtilis NCIM 2063 at MIC50 concentration after 3 hr by DCFH-DA-based fluorimetric analysis; assay type: functional, organism-based
Escherichia coli [6] = assay: Antibacterial activity against Escherichia coli NCIM 2931 incubated for 12 hr followed by subculturing measured after 24 hr by colony counting method; assay type: functional
Bacillus subtilis [7] = assay: Antibacterial activity against Bacillus subtilis NCIM 2063 incubated for 12 hr followed by subculturing measured after 24 hr by colony counting method; assay type: functional
Escherichia coli [8] = assay: Antibacterial activity against Escherichia coli NCIM 2931 after 12 hr by resazurin reduction assay; assay type: functional; settings: NCIM 2931, 12 h
Bacillus subtilis [9] = assay: Antibacterial activity against Bacillus subtilis NCIM 2063 after 12 hr by resazurin reduction assay; assay type: functional; settings: NCIM 2063, 12 h

MIC (Escherichia coli [8]): 500 µg/mL (≈ 2420 µM) | MIC (Bacillus subtilis [9]): 250 µg/mL (≈ 1210 µM)
SMILES: COc1ccccc1-c1csc(N)n1
Activity (Pseudomonas aeruginosa [1]): Active | Activity (Pseudomonas aeruginosa [2]): Active | Activity (Pseudomonas aeruginosa [3]): Active | Activity (Bacillus subtilis [4]): inactive | Activity (Bacillus subtilis [5]): inactive | MBC (Escherichia coli [6]): 500 µg/mL (≈ 2420 µM) | MBC (Bacillus subtilis [7]): 250 µg/mL (≈ 1210 µM)
